Results taken from article PMC6915887, “Inhibition of human carboxylesterases by ginsenosides: structure–activity relationships and inhibitory mechanism” (Chinese Medicine, 2019).

What was measured:
Type in all cases: biochemical
hCES1A [1] = molecular target: T1, hCES1A (Homo sapiens, UniProt P23141); assay: hCES1A inhibition assay (DME hydrolysis in HLM); details: for IC50: HLM as enzyme source, DME hydrolysis as probe reaction, read-out: IC50 (μM) hCES1A;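 on all read-outs here: Read-out is D-luciferin luminescence formed from DME (3 µM) after 10 min at 37 °C in pH 6.5 PBS, HLM 1 µg/mL, inhibitor preincubated 3 min, oleanic acid as positive control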
T1 construct: tissue Bioreclamation IVT lot no; X008067; host or cells: pooled human liver microsomes (50 donors)
T1 sequence (P23141 18-567): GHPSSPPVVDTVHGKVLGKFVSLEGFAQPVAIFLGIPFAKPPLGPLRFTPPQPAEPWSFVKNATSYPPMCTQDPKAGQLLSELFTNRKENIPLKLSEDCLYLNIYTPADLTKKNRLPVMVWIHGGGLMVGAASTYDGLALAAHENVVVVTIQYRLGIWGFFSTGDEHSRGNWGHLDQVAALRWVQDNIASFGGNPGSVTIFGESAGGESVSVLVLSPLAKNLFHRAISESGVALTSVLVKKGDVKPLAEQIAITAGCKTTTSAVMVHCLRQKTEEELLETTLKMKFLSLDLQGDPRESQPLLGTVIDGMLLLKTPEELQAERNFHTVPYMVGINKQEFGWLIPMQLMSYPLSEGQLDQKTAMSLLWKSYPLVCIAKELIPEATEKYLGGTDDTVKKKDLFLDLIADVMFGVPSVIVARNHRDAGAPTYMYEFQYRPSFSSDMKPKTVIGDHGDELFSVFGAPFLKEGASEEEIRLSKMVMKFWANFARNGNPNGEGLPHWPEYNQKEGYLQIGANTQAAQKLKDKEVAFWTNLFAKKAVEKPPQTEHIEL
Experimental: DME hydrolysis was used as the probe reaction to assay the inhibitory effects of 25 ginsenosides against hCES1A, oleanic acid was used as a positive control of inhibition assays [43]. The incubation system contains 91 μL PBS (0.1 M pH 6.5), 5 μL HLM (1 μg/mL, final concentration) and 2 μL corresponding inhibitor. After pre-incubating the reaction mixture for 3 min at 37 °C, the reaction was started by adding 2 μL DME (3 μM, final concentration) with a total volume of 100 μL, in which the final content of DMSO was limited to 2% (v/v). After incubating for 10 min at 37 °C in a shaking bath, LDR (50 μL, equal volume of the incubation mixture) was added to terminate the reaction. The luminescence signals of D-luciferin (the hydrolytic metabolite of DME) was measured (excitation wavelength 580 nm) by a multi-mode microplate reader (SpectraMax® iD3, Molecular Devices, Austria).

hCES2A [2] = molecular target: T2, hCES2A (Homo sapiens, UniProt O00748); assay: hCES2A inhibition assay (FD hydrolysis in HLM); details: for inhibition of hCES2A-mediated FD hydrolysis (residual activity screen): HLM, ginsenoside 100 μM, result in words; for Specificity (hCES1A/hCES2A): ratio of IC50 values in HLM;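 on all read-outs here: HLM at 1 µg/mL in 0.1 M PBS pH 7.4, kinetic read at 37 °C every 30 s over 30 min, triplicate runs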
T2 construct: tissue Bioreclamation IVT lot no; X008067; host or cells: pooled human liver microsomes (50 donors)
T2 sequence (O00748 27-559): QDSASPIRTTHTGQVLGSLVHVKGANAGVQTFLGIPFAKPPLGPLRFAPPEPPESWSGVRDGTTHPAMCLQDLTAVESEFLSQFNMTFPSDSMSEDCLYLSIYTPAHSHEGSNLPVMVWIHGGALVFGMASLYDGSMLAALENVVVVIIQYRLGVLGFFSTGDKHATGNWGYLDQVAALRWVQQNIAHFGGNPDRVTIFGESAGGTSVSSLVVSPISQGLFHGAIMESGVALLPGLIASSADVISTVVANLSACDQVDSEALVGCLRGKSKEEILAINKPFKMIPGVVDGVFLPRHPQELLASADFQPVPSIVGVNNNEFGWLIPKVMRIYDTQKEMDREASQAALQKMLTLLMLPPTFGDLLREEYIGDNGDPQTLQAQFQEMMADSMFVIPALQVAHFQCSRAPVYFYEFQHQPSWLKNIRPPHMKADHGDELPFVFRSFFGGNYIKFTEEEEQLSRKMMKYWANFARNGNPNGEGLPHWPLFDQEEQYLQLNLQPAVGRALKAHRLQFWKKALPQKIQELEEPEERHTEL
Experimental: The incubation system contains 2 μL HLM (1 μg/mL, final concentration), 194 μL PBS (0.1 M pH 7.4) and 2 μL corresponding inhibitor. […] The kinetic parameters were set at 30 reads, with an interval of 30 s (30 min) and shake during 5 s before the first read at 37 °C.

hCES1A [3] = molecular target: T1, hCES1A; assay: Inhibition kinetic analyses of hCES1A-mediated DME hydrolysis in HLM
Experimental: According to the inhibition kinetics of both hCES1A and hCES2A, which were investigated by using varying concentrations of probe substrates in the presence of different concentrations of ginseng compounds (inhibitors), the inhibition constant (Ki) and inhibition kinetic types of ginsenosides were determined. The experimental details used to determine the inhibition constants have been reported previously.
All inhibition assays were performed in triplicate, nonlinear regression was used to determine the IC50 and Ki values with GraphPad Prism 7.0 software (GraphPad Software, Inc., La Jolla, USA).

hCES2A [4] = molecular target: T2, hCES2A; assay: Inhibition kinetic analyses of hCES2A-mediated FD hydrolysis in HLM

| Compound | IC50 (hCES1A [1]) [µM] | inhibition of hCES2A-mediated FD hydrolysis (residual activity screen) (hCES2A [2]) | Specificity (hCES1A/hCES2A) (hCES2A [2]) | Inhibition mode (hCES1A [3]) | Ki (hCES1A [3]) [µM] | Inhibition mode (hCES2A [4]) | inhibition of hCES1A-mediated DME hydrolysis (residual activity screen) (hCES1A [1]; HLM, ginsenoside 100 μM, result in words) | IC50 (hCES2A [2]; HLM as enzyme source, FD hydrolysis as probe reaction, read-out: IC50 (μM) hCES2A) [µM] | Ki (hCES2A [4]) [µM] |
| --- | --- | --- | --- | --- | --- | --- | --- | --- | --- |
| CC(C)=CCC[C@](C)(O)[C@H]1CC[C@]2(C)[C@@H]1CC[C@@H]1[C@@]3(C)CC[C@H](O)C(C)(C)[C@@H]3CC[C@]12C [DM, Dammarenediol II] | 1.99 ± 0.21 | strong or moderate inhibition | 3.06 | Competitive | 2.1 | Mixed | – | – | – |
| CC(C)=CCC[C@](C)(O)[C@H]1CC[C@]2(C)[C@@H]1[C@H](O)C[C@@H]1[C@@]3(C)CC[C@H](O)C(C)(C)[C@@H]3[C@@H](O)C[C@]12C [PPT, protopanaxatriol] | > 100 | strong or moderate inhibition | > 116.28 | – | – | Mixed | – | – | – |
| CC(C)=CCC[C@](C)(O)[C@H]1CC[C@]2(C)[C@@H]1[C@H](O)C[C@@H]1[C@@]3(C)CC[C@H](O)C(C)(C)[C@@H]3CC[C@]12C [PPD, protopanaxadiol] | > 100 | strong or moderate inhibition | > 75.18 | – | – | Mixed | – | – | – |
| CC(C)=CCC[C@](C)(O[C@@H]1O[C@H](CO)[C@@H](O)[C@H](O)[C@H]1O)C1CC[C@]2(C)C1CCC1[C@@]3(C)CC[C@H](O)C(C)(C)C3CC[C@]12C (stereo partly drawn) [DMG, 20S-O-β-(D-glucosyl)-dammarenediol II] | 1.76 ± 0.28 | strong inhibition | – | Competitive | 2.4 | Mixed | strong inhibition | 1.06 ± 0.21 | 2.83 |
